“And” between values parts separate entries of the source, which are not always exact repeats. Identical values can stand only once. Marks after values point to notes of the source that are not given here.
Assays:
Assay type in all cases: cell-based
[1] = tested on: S. sobrinus; experiment: Multi-species biofilm composition: absolute abundance of S. sobrinus; conditions: mean±SD n=3
Protocol: (§1) Biofilms are grown vertically on Calcium Deficient Hydroxyapatite (CAD-HA) disks (Hitemco Medical, Old Bethpage, USA) using the Amsterdam Active Adhesion model. Biofilms are allowed to establish during 24 h (37° C., 170 rpm) under micro-aerophilic conditions (6% O2, 7% CO2, 7% H2, 80% N2). After this 24 h, disks are rinsed 3 times a day for 3 minutes (RT, 250 rpm), for 3 consecutive days, by transferring the lid containing the disks to a new 24-well plate containing 2 mL/well of the appropriate substrate solution. As a negative control, PBS (pH 5.7) without substrate supplementation is used. After each rinsing step, disks are shortly dip-rinsed in a new 24-well plate containing fresh modified BHI medium (2 mL/well) to remove remaining substrate traces. Subsequently, the lid is transferred to another 24-well plate containing fresh modified BHI medium (2 mL/well), followed by incubation (micro-aerophilic, 37° C., 170 rpm) until the next rinsing step.
(§2) NADM, N-acetyl-D-glucosamine (“NADG”) and D-(+)-mannose are selected to determine their effects on multi-species biofilm composition. […] decrease in absolute numbers in at least four of the pathogenic bacterial species tested in the assay, compared to the control, the results of which are described in Table 1 below. Absolute abundances of bacterial species are shown as mean±SD (n=3) logarithmic values of the genome equivalents per millilitre (log(Geq/mL)).

[2] = tested on: multi-species biofilms; experiment: Multi-species biofilm organic acid balances (supernatant); conditions: >0 production, <0 consumption, mean±SD n=3
Protocol: as §1
To examine the effect of NADM and the influence of the orientation and absence/presence of the N-acetyl group on organic acid production and consumption, supernatant samples from substrate-treated or untreated multi-species biofilms are analysed. […] When comparing relevant significant differences between substrate conditions, an increase in acetate production is observed for NADM compared to D-(+)-mannose (3084±174 vs. 1934±56 mg/L).

[3] = tested on: P. intermedia; experiment: Multi-species biofilm composition: absolute abundance of P. intermedia; conditions: mean±SD n=3
Protocol: as §1
NADM, N-acetyl-D-glucosamine (“NADG”) and D-(+)-mannose are selected to determine their effects on multi-species biofilm composition. Repeated rinsing of the biofilms with the substrates at a concentration of 1M results in a significant decrease in absolute numbers in at least four of the pathogenic bacterial species tested in the assay, compared to the control, the results of which are described in Table 1 below. Absolute abundances of bacterial species are shown as mean±SD (n=3) logarithmic values of the genome equivalents per millilitre (log(Geq/mL)).

[4] = tested on: human oral keratinocytes (HOK-18A); experiment: Inflammatory mediator gene expression in keratinocytes exposed to substrate-treated biofilms; conditions: relative to control (=1), geometric mean (95% C.I.) n=3
Protocol: Cultures of immortalized human oral keratinocytes (HOK-18A) are grown. The relative inflammatory potential of the substrate-treated multi-species biofilms is evaluated by analyzing the expression of five inflammatory mediator genes in human oral keratinocytes (HOKs) exposed to the substrate-treated biofilms. […] The IL-8 levels in the cellular supernatant are determined as well. RNA is converted to cDNA and relative expression of inflammatory mediator genes is determined as described above with respect to the cellular housekeeping gene (3-actin.
In HOKs exposed to substrate-treated (substrate concentrations of 1 M) multi-species biofilms, mostly decreases in inflammatory mediator gene expression are observed and measured via SYBR RT-qPCR, the results of which are detailed in Table 6.
All substrates are dissolved in PBS at a concentration of 1 M (upper part) or 1% (w/v) (lower part). Values between 0 and 1 represent relative downregulation, values >1 represent relative upregulation. […] For such values, statistically significant differences between two experimental conditions are marked with ‘#1’ (vs. NADM), ‘#2’ (vs. NADG), ‘#3’ (vs. D-(+)-mannose) (P<0.05).

[5] = tested on: multi-species biofilm; experiment: Relative multi-species biofilm composition (groups of bacterial species)
Protocol: as §1, §2
Relative abundances of the different groups (beneficial/commensals, periodontal pathogens, cariogenic pathogens) of bacterial species are shown as mean±SD (n=3) percentage of the genome equivalents per millilitre (% (Geq/mL)). […] NADM: N-acetyl-D-mannosamine; NADG: N-acetyl-D-glucosamine.

[6] = tested on: A. actinomycetemcomitans; experiment: Multi-species biofilm composition: absolute abundance of A. actinomycetemcomitans; conditions: mean±SD n=3
Protocol: as §1, §2

[7] = tested on: S. sanguinis; experiment: Multi-species biofilm composition: absolute abundance of S. sanguinis; conditions: mean±SD n=3
Protocol: as §1, §2

[8] = tested on: A. actinomycetemcomitans virulence genes; experiment: Multi-species biofilm virulence gene expression, SYBR RT-qPCR: A. actinomycetemcomitans; conditions: for Fold Change in virulence gene expression: aae / Fold Change in virulence gene expression: apaH / Fold Change in virulence gene expression: cdtB / Fold Change in virulence gene expression: emaA / Fold Change in virulence gene expression: flp / Fold Change in virulence gene expression: ltxA / Fold Change in virulence gene expression: omp29 / Fold Change in virulence gene expression: omp100 / Fold Change in virulence gene expression: orf859 / Fold Change in virulence gene expression: pgA / Fold Change in virulence gene expression: vapA / Fold Change in virulence gene expression: vppA: relative to control (=1), 2^-ΔΔCt, geometric mean n=3
Protocol: as §1
The expression of 33 virulence genes from 4 periodontal pathogens is analysed to evaluate the relative virulence of the substrate-treated biofilms. For all three substrates, virulence gene expression is determined relatively to the control, and these values are also compared between substrates when this is relevant (Tables 5a-5d).

[9] = biofilm rinsed with substrate 1%
[10] = biofilm rinsed with substrate 1M
[11] = substrate 1%(w/v) in PBS, mean±SD n=3
[12] = substrate 1 M in PBS, mean±SD n=3

CC(=O)N[C@H]1C(O)O[C@H](CO)[C@@H](O)[C@@H]1O (stereo partly drawn) [NADG, N-acetyl-D-glucosamine, reference compound]
Absolute abundance S. sobrinus ([1]; substrate 1%(w/v) in PBS): 4.87 ± 0.22 log(Geq/mL)
Absolute abundance S. sobrinus ([1]; substrate 1 M in PBS): 4.16 ± 0.44 log(Geq/mL)
acetate level in biofilm supernatant ([2]; substrate 1%(w/v)): 379 ± 10 mg/L
butyrate level in biofilm supernatant ([2]; substrate 1%(w/v)): 2238 ± 59 mg/L
formate level in biofilm supernatant ([2]; substrate 1%(w/v)): 4315 ± 198 mg/L
lactate level in biofilm supernatant ([2]; substrate 1%(w/v)): 125 ± 0 mg/L
propionate level in biofilm supernatant ([2]; substrate 1%(w/v)): 2205 ± 89 mg/L
acetate level in biofilm supernatant ([2]; substrate 1 M): 3815 ± 77 mg/L
butyrate level in biofilm supernatant ([2]; substrate 1 M): 1255±51 mg/L and 1255 ± 51*^, #1, 3 mg/L
formate level in biofilm supernatant ([2]; substrate 1 M): 352 ± 18 mg/L
lactate level in biofilm supernatant ([2]; substrate 1 M): 125 ± 0 mg/L
propionate level in biofilm supernatant ([2]; substrate 1 M): 2750 ± 40 mg/L
Absolute abundance Pi (P. intermedia) ([3]; substrate 1%(w/v) in PBS): 8.17 ± 0.22 log(Geq/mL)
Absolute abundance Pi (P. intermedia) ([3]; substrate 1 M in PBS): 6.93 ± 0.62 log(Geq/mL)
Fold change in inflammatory mediator gene expression: IL-1β [4, 9]: 0.71 (0.38-1.33) fold
Fold change in inflammatory mediator gene expression: IL-6 [4, 9]: 0.73 (0.58-0.93) fold
Fold change in inflammatory mediator gene expression: IL-8 [4, 9]: 1.00 (0.78-1.27) fold
Fold change in inflammatory mediator gene expression: MMP-8 [4, 9]: 0.52 (0.17-1.60) fold
Fold change in inflammatory mediator gene expression: TNF-α [4, 9]: 0.71 (0.28-1.35) fold
Fold change in inflammatory mediator gene expression: IL-1β [4, 10]: 0.75 (0.55-1.02) fold
Fold change in inflammatory mediator gene expression: IL-6 [4, 10]: 0.57 (0.46-0.71) fold
Fold change in inflammatory mediator gene expression: IL-8 [4, 10]: 0.14 (0.06-0.36)* fold
Fold change in inflammatory mediator gene expression: MMP-8 [4, 10]: 1.28 (0.79-2.08) fold
Fold change in inflammatory mediator gene expression: TNF-α [4, 10]: 0.89 (0.59-1.34) fold
Relative abundance Beneficials/Commensals [5, 11]: 60.07 ± 8.25 % (Geq/mL)
Relative abundance Cariogenic Pathogens [5, 11]: 0.66±0.27 % (Geq/mL)
Relative abundance Periodontal Pathogens [5, 11]: 39.27 ± 7.98 % (Geq/mL)
Relative abundance Beneficial or commensals [5, 12]: 97.52±0.82 % (Geq/mL)
Relative abundance Cariogenic Pathogens [5, 12]: 2.35 ± 0.92 % (Geq/mL)
Relative abundance Periodontal Pathogens [5, 12]: 0.13±0.10 % (Geq/mL) and 0.13 ± 0.10 *^, #1 % (Geq/mL)
Decreases in A. actinomycetemcomitans, F. nucleatum, P. gingivalis, P. intermedia and S. sobrinus numbers vs control ([5]; substrate 1 M, range over the species): −1.5 to −2.5 log(Geq/mL)
Absolute abundance Aa (A. actinomycetemcomitans) ([6]; substrate 1%(w/v) in PBS): 9.11 ± 0.20 log(Geq/mL)
Absolute abundance Aa (A. actinomycetemcomitans) ([6]; substrate 1 M in PBS): 6.6 ± 0.93 log(Geq/mL)
Absolute abundance S. sang. (S. sanguinis) ([7]; substrate 1%(w/v) in PBS): 8.4 ± 0.11 log(Geq/mL)
Absolute abundance S. sang. (S. sanguinis) ([7]; substrate 1 M in PBS): 8.11 ± 0.68 log(Geq/mL)
Fold Change in virulence gene expression: aae ([8]; substrate 1% (w/v)): 1.55 fold
Fold Change in virulence gene expression: apaH ([8]; substrate 1% (w/v)): 0.73 fold
Fold Change in virulence gene expression: cdtB ([8]; substrate 1% (w/v)): 1.05 fold
Fold Change in virulence gene expression: emaA ([8]; substrate 1% (w/v)): 0.68 fold
Fold Change in virulence gene expression: flp ([8]; substrate 1% (w/v)): 0.54 fold
Fold Change in virulence gene expression: ltxA ([8]; substrate 1% (w/v)): 0.40 fold
Fold Change in virulence gene expression: omp29 ([8]; substrate 1% (w/v)): 0.77 fold
Fold Change in virulence gene expression: omp100 ([8]; substrate 1% (w/v)): 0.71 fold
Fold Change in virulence gene expression: orf859 ([8]; substrate 1% (w/v)): 1.99 fold
Fold Change in virulence gene expression: pgA ([8]; substrate 1% (w/v)): 0.72 fold
Fold Change in virulence gene expression: vapA ([8]; substrate 1% (w/v)): 0.65 fold
Fold Change in virulence gene expression: vppA ([8]; substrate 1% (w/v)): 0.28 fold
A. actinomycetemcomitans gene expression decrease: vppA ([8]; substrate 1%(w/v)): 3.6 fold
A. actinomycetemcomitans gene expression increase: aae ([8]; substrate 1%(w/v)): 1.5 fold
A. actinomycetemcomitans gene expression increase: orf859 ([8]; substrate 1%(w/v)): 2 fold
Upregulation of A. actinomycetemcomitans expression of flp ([8]; substrate 1 M): 2.4 fold
Fold Change in virulence gene expression: aae ([8]; substrate 1M): 0.24 fold
Fold Change in virulence gene expression: apaH ([8]; substrate 1M): 0.08 fold
Fold Change in virulence gene expression: cdtB ([8]; substrate 1M): 0.04 fold
Fold Change in virulence gene expression: emaA ([8]; substrate 1M): 0.29 fold
Fold Change in virulence gene expression: flp ([8]; substrate 1M): 2.40 fold
Fold Change in virulence gene expression: ltxA ([8]; substrate 1M): 0.01 fold
Fold Change in virulence gene expression: omp29 ([8]; substrate 1M): 0.19 fold
Fold Change in virulence gene expression: omp100 ([8]; substrate 1M): 0.03 fold
Fold Change in virulence gene expression: orf859 ([8]; substrate 1M): 0.13 fold
Fold Change in virulence gene expression: pgA ([8]; substrate 1M): 11.60 fold
Fold Change in virulence gene expression: vapA ([8]; substrate 1M): 1.00 fold
Fold Change in virulence gene expression: vppA ([8]; substrate 1M): 0.49 fold

Reference: US20220257491A1, “Prebiotic Oral Care Compositions and Methods” (Colgate-Palmolive Company, priority 2021, published 2022)
